Structures are written as SMILES. Counter-ions that a name gives are not always drawn. Like-named read-outs stand apart in the source and are kept apart here.

The target in data set [1] is human Muscarinic M1 receptor (Homo sapiens (Human), UniProt P11229). Nature of the data set: Allosteric potency EC50 for muscarinic M1 receptor (CHO cells, pCRE-Luc reporter). Type of data set: cell-based. The following applies: luciferase activity, 4 hours. As to the method: Determination of Allosteric Potency EC50 Values for Muscarinic M1 Receptor:
A stable CHO cell line expressing recombinant human Muscarinic M1 receptor and pCRE-Luc reporter system was used for cell-based assay. The assay offers a non-radioactive based approach to determine binding of a compound to GPCRs. In this specific assay, the level of intracellular cyclic AMP which is modulated by activation or inhibition of the receptor is measured. The recombinant cells harbor luciferase reporter gene under the control of cAMP response element.
The above cells were grown in 96 well clear bottom white plates in Hams F12 medium containing 10% fetal bovine serum (FBS). Prior to the addition of compounds or standard agonist, cells were serum starved overnight. Increasing concentrations of test compounds were added along with EC20 of acetylcholine in OptiMEM medium to the cells. The incubation was continued at 37° C. in CO2 incubator for 4 hours. Medium was removed and cells were washed with phosphate buffered saline. The cells were lysed and luciferase activity was measured in a Luminometer. Luminescence units were plotted against the compound concentrations using Graphpad software. EC50 values of the compounds were defined as the concentration required in stimulating the luciferase activity by 50% in presence of EC20 of acetylcholine and the results are provided in table 1.

Data set [2] is described as follows: Rodent brain penetration study. Type of data set: in vivo, Male Wistar rats. The conditions noted are these: male, Wistar, rat, oral; 3 mg/kg, p.o.; brain-plasma ratio; read-out: Single dose Rat Brain Penetration (Cb/Cp). As to the method:
WO2015044072A1 patent application discloses indole derivatives as M1 PAM compounds. […] This makes these compounds less ideal for the treatment of CNS disorders.
Rodent Brain Penetration Study
Male Wistar rats (260±40 grams) were used as experimental animals. Three animals were housed in each cage. Animals were given water and food ad libitum throughout the experiment and maintained on a 12 hours light/dark cycle.
Brain penetration was determined in discrete manner in rats. One day prior to dosing day, male Wistar rats were acclimatized and randomly grouped according to their weight. At each time point (0.5, 1 and 2 hours) n=3 animals were used.
The test compounds were suitably preformulated and administered orally at (free base equivalent) 3 mg/kg. Blood samples were removed via cardiac puncture by using isoflurane anesthesia. The animals were sacrificed to collect brain tissue. Plasma was separated and brain samples were homogenized and stored frozen at ˜20° C. until analysis. The concentrations of the test compounds in plasma and brain were determined using LC-MS/MS method.
The test compounds were quantified in plasma and brain homogenate by qualified LC-MS/MS method using suitable extraction technique. The test compounds were quantified in the calibration range of 1-500 ng/mL in plasma and brain homogenate. Study samples were analyzed using calibration samples in the batch and quality control samples spread across the batch.

[3] abbreviates: hM1 PAM EC50, in presence of EC20 of acetylcholine.
[4] abbreviates: in presence of EC20 of acetylcholine, read-out: hM1 PAM EC50.

What is called EC50 is the concentration giving half of the maximal effect. `O=C(N[C@H]1CCNC[C@H]1F)c1cn(Cc2ccnc(Cl)c2)c2c(F)ccc(F)c12` (racemic) [Example 28, cis-N-(3-Fluoropiperidin-4-yl)-1-(2-chloropyridin-4-ylmethyl)-4,7-difluoro-1H-indole-3-carboxamide hydrochloride (Racemate)]: the EC50 in data set [1] (setting [3]) amounted to 1.57 µM.

As to `O=C(N[C@@H]1CCNC[C@H]1F)c1cn(Cc2ccnc(F)c2)c2c(F)ccc(F)c12` (single isomer, unassigned; isomer-i) [Example 24, trans-N-(3-Fluoropiperidin-4-yl)-1-(2-fluoropyridin-4-ylmethyl)-4,7-difluoro-1H-indole-3-carboxamide hydrochloride (Isomer-I)], in data set [1] (setting [3]), the EC50 was determined as 1.39 µM. `O=C(N[C@H]1CCNC[C@H]1F)c1cn(Cc2ccncc2F)c2c(F)ccc(F)c12` (single isomer, unassigned; isomer-i) [Example 26, cis-N-(3-Fluoropiperidin-4-yl)-1-(5-fluoropyridin-4-ylmethyl)-4,7-difluoro-1H-indole-3-carboxamide hydrochloride (Isomer-I)]: the EC50 in data set [1] (setting [3]) is 1.1 µM.

Consider `O=C(N[C@H]1CCNC[C@H]1F)c1cn(Cc2ccnc(Cl)c2)c2cccc(F)c12` (single isomer, unassigned; isomer-i) [Example 27, cis-N-(3-Fluoropiperidin-4-yl)-1-(2-chloropyridin-4-ylmethyl)-4-fluoro-1H-indole-3-carboxamide hydrochloride (Isomer-I)], for which the EC50 in data set [1] (setting [3]) amounted to 1.69 µM. In the case of `O=C(N[C@H]1CCNC[C@H]1F)c1cn(Cc2ccnc(Cl)c2)c2c(F)ccc(F)c12` (single isomer, unassigned; isomer-i) [Example 29, cis-N-(3-Fluoropiperidin-4-yl)-1-(2-chloropyridin-4-ylmethyl)-4,7-difluoro-1H-indole-3-carboxamide hydrochloride (Isomer-I)], the half-maximal effective concentration (EC50) in data set [1] (setting [3]) was found to be 2.92 µM. Consider `O=C(N[C@H]1CCNC[C@H]1F)c1cn(Cc2ccc(F)cc2)c2cccc(F)c12` (single isomer, unassigned; isomer-i) [Example 30, cis-N-(3-Fluoropiperidin-4-yl)-1-(4-fluorobenzyl)-4-fluoro-1H-indole-3-carboxamide hydrochloride (Isomer-I)], for which, in data set [1] (setting [3]), the EC50 stood at 1.08 µM. Further, the Kp in data set [2] was found to be 1.05 ± 0.53. For the compound `O=C(N[C@H]1CCNC[C@H]1F)c1cn(Cc2ccc(F)cc2)c2c(F)ccc(F)c12` (single isomer, unassigned; isomer-i) [Example 31, cis-N-(3-Fluoropiperidin-4-yl)-1-(4-fluorobenzyl)-4,7-difluoro-1H-indole-3-carboxamide hydrochloride (Isomer-I)], the EC50 in data set [1] (setting [3]) came to 1.61 µM.

As to `O=C(N[C@H]1CCNC[C@H]1F)c1cn(Cc2ccccc2F)c2cccc(F)c12` (single isomer, unassigned; isomer-i) [Example 33, cis-N-(3-Fluoropiperidin-4-yl)-1-(2-fluorobenzyl)-4-fluoro-1H-indole-3-carboxamide hydrochloride (Isomer-I)], the EC50 in data set [1] (setting [3]) was 1.37 µM. Same read-out and setting: the result for `O=C(N[C@H]1CCNC[C@H]1F)c1cn(Cc2ccc(Cl)cc2)c2cccc(F)c12` (single isomer, unassigned; isomer-i) [Example 34, cis-N-(3-Fluoropiperidin-4-yl)-1-(4-chlorobenzyl)-4-fluoro-1H-indole-3-carboxamide hydrochloride (Isomer-I)] reads 1.39 µM.

For the compound `COc1cccc(Cn2cc(C(=O)N[C@H]3CCNC[C@H]3F)c3c(F)cccc32)c1` (single isomer, unassigned; isomer-i) [Example 35, cis-N-(3-Fluoropiperidin-4-yl)-4-fluoro-1-(3-methoxybenzyl)-1H-indole-3-carboxamide hydrochloride (Isomer-I)], the EC50 in data set [1] (setting [3]) turned out to be 1.48 µM. In addition, the Kp in data set [2] was found to be 0.72 ± 0.03. As to `COc1ccc(Cn2cc(C(=O)N[C@H]3CCNC[C@H]3F)c3c(F)ccc(F)c32)cc1` (single isomer, unassigned; isomer-i) [Example 39, cis-N-(3-Fluoropiperidin-4-yl)-1-(4-methoxybenzyl)-4,7-difluoro-1H-indole-3-carboxamide hydrochloride (Isomer-I)], the EC50 in data set [1] (setting [3]) is 1.48 µM. In the case of `O=C(N[C@H]1CCNC[C@H]1F)c1cn(Cc2ccnc(F)c2)c2cccc(F)c12` (single isomer, unassigned; isomer-i) [Example 44, cis-N-(3-Fluoropiperidin-4-yl)-1-(2-fluoropyridin-4-ylmethyl)-4-fluoro-1H-indole-3-carboxamide hydrochloride (Isomer-I)], the EC50 in data set [1] (setting [3]) worked out at 1.31 µM. On the same count and under the same terms, as for `O=C(N[C@H]1CCNC[C@H]1F)c1cn(Cc2ccc3ncsc3c2)c2cccc(F)c12` (single isomer, unassigned; isomer-i) [Example 45, cis-N-(3-Fluoropiperidin-4-yl)-1-(benzothiazol-6-ylmethyl)-4-fluoro-1H-indole-3-carboxamide hydrochloride (Isomer-I)], the figure is 1.16 µM; as for `O=C(NC1CCNCC1F)c1cn(Cc2ccnc(F)c2)c2c(F)ccc(F)c12` (single isomer, unassigned; isomer-ii) [Example 23, cis-N-(3-Fluoropiperidin-4-yl-1-(2-fluoropyridin-4-ylmethyl)-4,7-difluoro-1H-indole-3-carboxamide hydrochloride (Isomer-II)], 1.07 µM; as for `O=C(N[C@@H]1CCNC[C@H]1F)c1cn(Cc2ccnc(F)c2)c2c(F)ccc(F)c12` (single isomer, unassigned; isomer-ii) [Example 25, trans-N-(3-Fluoropiperidin-4-yl)-1-(2-fluoropyridin-4-ylmethyl)-4,7-difluoro-1H-indole-3-carboxamide hydrochloride (Isomer-II)], 1.44 µM.

On to `O=C(N[C@H]1CCNC[C@H]1F)c1cn(Cc2ccc(F)cc2)c2c(F)ccc(F)c12` (single isomer, unassigned; isomer-ii) [Example 32, cis-N-(3-Fluoropiperidin-4-yl)-1-(4-fluorobenzyl)-4,7-difluoro-1H-indole-3-carboxamide hydrochloride (Isomer-II)], for which the half-maximal effective concentration (EC50) in data set [1] (setting [3]) was found to be 1.59 µM. Still for that read-out and setting: the result for `COc1cccc(Cn2cc(C(=O)N[C@H]3CCNC[C@H]3F)c3c(F)cccc32)c1` (single isomer, unassigned; isomer-ii) [Example 36, cis-N-(3-Fluoropiperidin-4-yl)-4-fluoro-1-(3-methoxybenzyl)-1H-indole-3-carboxamide hydrochloride (Isomer-II)] reads 1.35 µM; that for `COc1ccc(Cn2cc(C(=O)N[C@H]3CCNC[C@H]3F)c3c(F)cccc32)cc1` (single isomer, unassigned; isomer-ii) [Example 37, cis-N-(3-Fluoropiperidin-4-yl)-1-(4-methoxybenzyl)-4-fluoro-1H-indole-3-carboxamide hydrochloride (Isomer-II)], 1.99 µM. Turning to `Cn1cc(Cn2cc(C(=O)N[C@@H]3CCCC[C@H]3O)c3c(F)cccc32)cn1` [Example 3, N-[(1R,2R)-2-Hydroxycyclohexyl]-1-(1-methyl-1H-pyrazol-4-ylmethyl)-4-fluoro-1H-indole-3-carboxamide], in data set [1] (setting [4]), the EC50 was found to be 1.64 µM.

Consider `Cn1nc(Cn2cc(C(=O)N[C@H]3CCCC[C@@H]3O)c3c(F)cccc32)c2ccccc21` [Example 4], for which the half-maximal effective concentration (EC50) in data set [1] (setting [4]) amounted to 1.49 µM. Take `O=C(N[C@H]1CCCC[C@@H]1O)c1cn(Cc2ccncc2F)c2cccc(F)c12` [Example 9, N-[(1S,2S)-2-Hydroxycyclohexyl]-1-(3-fluoropyridin-4-ylmethyl)-4-fluoro-1H-indole-3-carboxamide]: the EC50 in data set [1] (setting [4]) is 1.42 µM. Regarding `O=C(N[C@H]1CCCC[C@@H]1O)c1cn(Cc2ccnc(F)c2F)c2cccc(F)c12` [Example 13, N-[(1S,2S)-2-Hydroxycyclohexyl]-1-(2,3-difluoropyridin-4-ylmethyl)-4-fluoro-1H-indole-3-carboxamide], the EC50 in data set [1] (setting [4]) was found to be 1.38 µM. Still for that read-out and setting: as for `O=C(N[C@H]1CCCC[C@@H]1O)c1cn(Cc2ccc3ncsc3c2)c2cccc(F)c12` [Example 18, N-[(1S,2S)-2-Hydroxycyclohexyl]-1-(benzothiazol-6-ylmethyl)-4-fluoro-1H-indole-3-carboxamide], the figure is 0.16 µM. For the compound `O=C(N[C@H]1CCCC[C@@H]1O)c1cn(Cc2cnn(CCF)c2)c2cccc(F)c12` [Example 19, N-[(1S,2S)-2-Hydroxycyclohexyl]-1-(1-(2-fluoroethyl)-1H-pyrazol-4-ylmethyl)-4-fluoro-1H-indole-3-carboxamide], in data set [1] (setting [4]), the EC50 was found to be 0.744 µM.
